pIC50: −log10 of the molar value.
Tested on: K24384-001-R-PDC complex spheroids, viability
Test: Anticancer human tumor K24384-001-R-PDC patient-derived pancreatic adenocarcinoma cell line growth inhibition [GQUAD]
Settings: for pIC50: curve of first compound; for viability, T/C: stronger effect = lower value
In short: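 Multi-cell-type spheroids of tumor cells with HUVEC and mesenchymal stem cells, treated with drug combinations. Concentrations descend in half-log steps from near clinical Cmax, or from 10 microM where Cmax is unknown; viability read-out.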

[1] = second compound 0.0316 µM, first compound 0.0316 µM
[2] = second compound 0.0316 µM, first compound 0.1 µM
[3] = second compound 0.0316 µM, first compound 0.316 µM
[4] = second compound 0.0316 µM, first compound 1 µM
[5] = second compound 0.0316 µM, first compound 3.16 µM
[6] = second compound 0.0316 µM, first compound 10 µM
[7] = second compound 0.1 µM, first compound 0.0316 µM
[8] = second compound 0.1 µM, first compound 0.1 µM
[9] = second compound 0.1 µM, first compound 0.316 µM
[10] = second compound 0.1 µM, first compound 1 µM
[11] = second compound 0.1 µM, first compound 3.16 µM
[12] = second compound 0.1 µM, first compound 10 µM
[13] = second compound 0.316 µM, first compound 0.0316 µM
[14] = second compound 0.316 µM, first compound 0.1 µM
[15] = second compound 0.316 µM, first compound 0.316 µM
[16] = second compound 0.316 µM, first compound 1 µM
[17] = second compound 0.316 µM, first compound 3.16 µM
[18] = second compound 0.316 µM, first compound 10 µM
[19] = second compound 1 µM, first compound 0.0316 µM
[20] = second compound 1 µM, first compound 0.1 µM
[21] = second compound 1 µM, first compound 0.316 µM
[22] = second compound 1 µM, first compound 1 µM
[23] = second compound 1 µM, first compound 3.16 µM
[24] = second compound 1 µM, first compound 10 µM
[25] = second compound 3.16 µM, first compound 0.0316 µM
[26] = second compound 3.16 µM, first compound 0.1 µM
[27] = second compound 3.16 µM, first compound 0.316 µM
[28] = second compound 3.16 µM, first compound 1 µM
[29] = second compound 3.16 µM, first compound 3.16 µM
[30] = second compound 3.16 µM, first compound 10 µM
[31] = second compound 10 µM, first compound 0.0316 µM
[32] = second compound 10 µM, first compound 0.1 µM
[33] = second compound 10 µM, first compound 0.316 µM
[34] = second compound 10 µM, first compound 1 µM
[35] = second compound 10 µM, first compound 3.16 µM
[36] = second compound 10 µM, first compound 10 µM
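Also: spheroids exposed to compounds for seven days.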

COc1cc(C2c3cc4c(cc3C(OC3OC5COC(C)OC5C(O)C3O)C3COC(=O)C23)OCO4)cc(OC)c1O (stereo not drawn) + Cc1[nH]c2ccc(F)cc2c1-c1nc2c3cccnc3c3ncccc3c2[nH]1
pIC50 (second compound 0.0316 µM): 5.52
pIC50 (second compound 0.1 µM): 5.88
pIC50 (second compound 0.316 µM): 5.71
pIC50 (second compound 1 µM): 5.56
pIC50 (second compound 3.16 µM): 5.73
pIC50 (second compound 10 µM): 6.16
viability, T/C [1]: 104%
viability, T/C [2]: 96%
viability, T/C [3]: 73.3%
viability, T/C [4]: 71%
viability, T/C [5]: 47.1%
viability, T/C [6]: 33.5%
viability, T/C [7]: 90%
viability, T/C [8]: 94.7%
viability, T/C [9]: 68.8%
viability, T/C [10]: 57%
viability, T/C [11]: 37.5%
viability, T/C [12]: 35.9%
viability, T/C [13]: 113%
viability, T/C [14]: 99.5%
viability, T/C [15]: 75.6%
viability, T/C [16]: 59.3%
viability, T/C [17]: 44.1%
viability, T/C [18]: 35.2%
viability, T/C [19]: 85%
viability, T/C [20]: 80.7%
viability, T/C [21]: 68.7%
viability, T/C [22]: 67.6%
viability, T/C [23]: 44.5%
viability, T/C [24]: 38.1%
viability, T/C [25]: 83.2%
viability, T/C [26]: 71.8%
viability, T/C [27]: 67.6%
viability, T/C [28]: 69.6%
viability, T/C [29]: 33.2%
viability, T/C [30]: 30.8%
viability, T/C [31]: 55.4%
viability, T/C [32]: 59.5%
viability, T/C [33]: 53.1%
viability, T/C [34]: 47.7%
viability, T/C [35]: 24.5%
viability, T/C [36]: 19.8%

Cc1cccc(N(C)C(=O)C2C(O)CCN2c2nc(C)cc(C(F)(F)F)c2C#N)c1 (stereo not drawn) + Cc1[nH]c2ccc(F)cc2c1-c1nc2c3cccnc3c3ncccc3c2[nH]1
pIC50 (second compound 0.0316 µM): < 5.00
pIC50 (second compound 0.1 µM): < 5.00
pIC50 (second compound 0.316 µM): < 5.00
pIC50 (second compound 1 µM): < 5.00
pIC50 (second compound 3.16 µM): < 5.00
pIC50 (second compound 10 µM): < 5.00
viability, T/C [1]: 98.2%
viability, T/C [2]: 90.9%
viability, T/C [3]: 105%
viability, T/C [4]: 95.2%
viability, T/C [5]: 116%
viability, T/C [6]: 117%
viability, T/C [7]: 95.3%
viability, T/C [8]: 102%
viability, T/C [9]: 103%
viability, T/C [10]: 100%
viability, T/C [11]: 131%
viability, T/C [12]: 118%
viability, T/C [13]: 81.5%
viability, T/C [14]: 103%
viability, T/C [15]: 107%
viability, T/C [16]: 104%
viability, T/C [17]: 105%
viability, T/C [18]: 128%
viability, T/C [19]: 85.4%
viability, T/C [20]: 91.2%
viability, T/C [21]: 87.9%
viability, T/C [22]: 99%
viability, T/C [23]: 114%
viability, T/C [24]: 93.4%
viability, T/C [25]: 83.1%
viability, T/C [26]: 75%
viability, T/C [27]: 77.4%
viability, T/C [28]: 85%
viability, T/C [29]: 83.7%
viability, T/C [30]: 71.8%
viability, T/C [31]: 74.4%
viability, T/C [32]: 85.5%
viability, T/C [33]: 74.4%
viability, T/C [34]: 85.6%
viability, T/C [35]: 67.9%
viability, T/C [36]: 75.5%

Cn1ncnc1[C@H]1c2n[nH]c(=O)c3cc(F)cc(c23)N[C@@H]1c1ccc(F)cc1 + Cc1[nH]c2ccc(F)cc2c1-c1nc2c3cccnc3c3ncccc3c2[nH]1
pIC50 (second compound 0.0316 µM): < 6.50
pIC50 (second compound 0.1 µM): < 6.50
pIC50 (second compound 0.316 µM): < 6.50
pIC50 (second compound 1 µM): < 6.50
pIC50 (second compound 3.16 µM): < 6.50
pIC50 (second compound 10 µM): < 6.50
viability, T/C (second compound 0.0316 µM, first compound 0.000999 µM): 97.8%
viability, T/C (second compound 0.0316 µM, first compound 0.00316 µM): 94.4%
viability, T/C (second compound 0.0316 µM, first compound 0.00999 µM): 99.6%
viability, T/C [1]: 92%
viability, T/C (second compound 0.0316 µM, first compound 0.0999 µM): 102%
viability, T/C [3]: 90.4%
viability, T/C (second compound 0.1 µM, first compound 0.000999 µM): 87.9%
viability, T/C (second compound 0.1 µM, first compound 0.00316 µM): 98.5%
viability, T/C (second compound 0.1 µM, first compound 0.00999 µM): 90.3%
viability, T/C [7]: 91%
viability, T/C (second compound 0.1 µM, first compound 0.0999 µM): 97.1%
viability, T/C [9]: 93.2%
viability, T/C (second compound 0.316 µM, first compound 0.000999 µM): 86.7%
viability, T/C (second compound 0.316 µM, first compound 0.00316 µM): 103%
viability, T/C (second compound 0.316 µM, first compound 0.00999 µM): 93%
viability, T/C [13]: 89.5%
viability, T/C (second compound 0.316 µM, first compound 0.0999 µM): 93%
viability, T/C [15]: 77.9%
viability, T/C (second compound 1 µM, first compound 0.000999 µM): 95.3%
viability, T/C (second compound 1 µM, first compound 0.00316 µM): 100%
viability, T/C (second compound 1 µM, first compound 0.00999 µM): 95.3%
viability, T/C [19]: 81.8%
viability, T/C (second compound 1 µM, first compound 0.0999 µM): 85.9%
viability, T/C [21]: 80.8%
viability, T/C (second compound 3.16 µM, first compound 0.000999 µM): 74%
viability, T/C (second compound 3.16 µM, first compound 0.00316 µM): 92.9%
viability, T/C (second compound 3.16 µM, first compound 0.00999 µM): 72.3%
viability, T/C [25]: 73.5%
viability, T/C (second compound 3.16 µM, first compound 0.0999 µM): 72.4%
viability, T/C [27]: 67.3%
viability, T/C (second compound 10 µM, first compound 0.000999 µM): 64.3%
viability, T/C (second compound 10 µM, first compound 0.00316 µM): 79%
viability, T/C (second compound 10 µM, first compound 0.00999 µM): 57.2%
viability, T/C [31]: 76.1%
viability, T/C (second compound 10 µM, first compound 0.0999 µM): 71.2%
viability, T/C [33]: 60.4%

O=C(c1cc(Cc2n[nH]c(=O)c3ccccc23)ccc1F)N1CCN(C(=O)C2CC2)CC1 + Cc1[nH]c2ccc(F)cc2c1-c1nc2c3cccnc3c3ncccc3c2[nH]1
pIC50 (second compound 0.0316 µM): < 5.00
pIC50 (second compound 0.1 µM): < 5.00
pIC50 (second compound 0.316 µM): < 5.00
pIC50 (second compound 1 µM): < 5.00
pIC50 (second compound 3.16 µM): < 5.00
pIC50 (second compound 10 µM): < 5.00
viability, T/C [1]: 101%
viability, T/C [2]: 94%
viability, T/C [3]: 99.6%
viability, T/C [4]: 94.3%
viability, T/C [5]: 84.4%
viability, T/C [6]: 93.1%
viability, T/C [7]: 103%
viability, T/C [8]: 104%
viability, T/C [9]: 147%
viability, T/C [10]: 98.7%
viability, T/C [11]: 89.8%
viability, T/C [12]: 83.9%
viability, T/C [13]: 96.8%
viability, T/C [14]: 97.4%
viability, T/C [15]: 95.7%
viability, T/C [16]: 85.7%
viability, T/C [17]: 82.3%
viability, T/C [18]: 91.1%
viability, T/C [19]: 78.1%
viability, T/C [20]: 88%
viability, T/C [21]: 90.5%
viability, T/C [22]: 87.5%
viability, T/C [23]: 89%
viability, T/C [24]: 69.7%
viability, T/C [25]: 82.9%
viability, T/C [26]: 78.1%
viability, T/C [27]: 64.3%
viability, T/C [28]: 77.9%
viability, T/C [29]: 82%
viability, T/C [30]: 67.3%
viability, T/C [31]: 69.7%
viability, T/C [32]: 70.7%
viability, T/C [33]: 62.5%
viability, T/C [34]: 69%
viability, T/C [35]: 74.5%
viability, T/C [36]: 56.1%

— PubChem BioAssay AID2060483 (Molecular Pharmacology Branch, DTP, NCI, 2025)
